The structures appear in SMILES notation. Entries after “also recorded” stand apart in the source; their conditions may differ.

Assay [1] deals with T1, recombinant human NAPE-PLD (Homo sapiens, UniProt Q6IQ20).
T1 construct: The expression plasmid including the full-length human NAPEPLD gene with a C-terminal hexahistidine tag; hexahistidine (His6) (C)
As to the kind of experiment: Concentration response with recombinant human NAPE-PLD, PED-A1 as substrate. Type of assay: biochemical. The conditions noted are these: for effect on activity of recombinant human NAPE-PLD: graded concentrations (FIG. 18A). From the text: FIG. 18A-B show VU534 and VU533 activate human NAPE-PLD. […] Mean±SEM, n=3. Non-linear regression with variable slope (four parameter) was used to calculate EC50 and Emax.
Initial stocks of potential NAPE-PLD modulator compounds were purchased from Life Chemicals and provided by the Vanderbilt HTS screening facility. Additional compounds were synthesized by the Vanderbilt Chemical Synthesis core. LEI-401, [^2H4]PEA and [^2H4]OEA were purchased from Cayman Chemicals. N-palmitoyl-PE, 1,2-dioleoyl-PE and 1,2-dihexanoyl-PE were purchased from Avanti Polar Lipids. PED-A1 was purchased from Invitrogen. Flame-NAPE was synthesized as previously described. See Zarrow et al., J. Lipid Res. 63(1): 100156 (2022). [^2H4]N-palmitoyl-PE was synthesized using [^2H4] palmitic acid (Cambridge Isotope Laboratories) and 1,2-dioleoyl-PE and N-oleoyl-PE was synthesized using 1,2-dihexanoyl-PE and oleoyl chloride (Millipore Sigma). Recombinant mouse NAPE-PLD with a C-terminal hexahistidine tag was expressed in E. coli and purified using cobalt affinity beads as previously described. See Aggarwal et al., J. Biol. Chem. 295(21): 7289-7300 (2020). The expression plasmid including the full-length human NAPEPLD gene with a C-terminal hexahistidine tag inserted in a pET plasmid was purchased from VectorBuilder, and the protein expressed and purified in an identical manner to recombinant mouse NAPE-PLD. The sEH inhibitors TPPU (N-[1-(1-Oxopropyl)-4-piperidinyl]-N′-[4-(trifluoromethoxy)phenyl]urea) and AUDA (12-[[(tricyclo[3.3.1.13,7]dec-1-ylamino)carbonyl]amino]-dodecanoic acid) were purchased from Cayman Chemical and Sigma Chemicals, respectively.
In vitro fluorescence NAPE-PLD activity assays using recombinant NAPE-PLD and either PED-A1 or flame-NAPE as fluorogenic substrate were performed as previously described except with small modifications as noted below. See Aggarwal et al., J. Biol. Chem. 295(21): 7289-7300 (2020); Zarrow et al., J. Lipid Res. 63(1): 100156 (2022).
Concentration response curve (CRC) experiments used the same assay conditions as the HTS assay, except that graded concentrations of each test compound were used, with total amount of vehicle (DMSO) kept constant. CRC experiments with purified recombinant mouse NAPE-PLD were performed on two separate days, with values from each day normalized to vehicle only controls on same plate, and then all normalized values from both days averaged together. CRC experiments with human NAPE-PLD represent value from only a single day, due to limited amounts of this recombinant enzyme.

Assay [2] deals with bone marrow-derived macrophages (BMDM). In words: Efferocytosis assay with bone marrow-derived macrophages and apoptotic Jurkat cells. Particulars: 10 μM; for effect on efferocytosis by wild-type BMDM: 6 h before assay. Type of assay: cell-based, mouse. As to the method: Male C57BL6/j wild-type or Napepld^−/− mice were euthanized with isoflurane and hind legs were removed. Marrow was flushed from femurs and tibias using DMEM containing 4.5 g/L glucose and a 26-gauge needle. Cell suspensions were passed over a 40-μm filter, centrifuged at 500×g, and resuspended in 50 ml of DMEM containing 4.5 g/L glucose, 20% L-cell conditioned media, 10% heat-inactivated FBS, and 1% penicillin/streptomycin. 10 ml of cell suspension was plated into each of five 100-mm dishes and incubated for four days at 37° C. and 5% CO2. On day four, non-adherent cells and debris were aspirated from the plates and replaced with fresh media. After 7 days of differentiation, cells were harvested for use in experiments.
Assays were performed according to previously described protocols. See e.g., Doran et al. J. Clin. Invest. 127(11): 4075-4089 (2017); Proto et al., Immunity 49(4): 666-677 (2018). Bone marrow-derived macrophages were seeded at 0.25×10^6 cells/well in a non-tissue culture-treated 24-well plate and allowed to adhere overnight. Macrophages were treated with various compounds at a final concentration of 10 μM or DMSO as a vehicle for 6 hours prior to each experiment. Jurkat cells were exposed to UV light (254 nm) for 5 minutes to induce apoptosis and then incubated in a 37° C. incubator with 5% CO2 for 2 hours. Surveillance staining of these cells routinely yielded approximately 80-90% apoptosis (Annexin V+) using this method. Apoptotic Jurkat cells were labeled with either CellVue Claret (Millipore Sigma) or Cell Trace Violet (Invitrogen) per the manufacturer's instructions. After staining, cells were resuspended in macrophage medium at a density of […] and 500 μL of this suspension was added to the drug-containing media on the macrophages to achieve a cell ratio of 3:1 Jurkats: macrophages. After incubating for 45 minutes at 37° C. and 5% CO2, the medium was aspirated, and the macrophages were gently washed twice with PBS to remove unbound apoptotic cells. Macrophages were then removed from the plate using Cell Stripper (Sigma), washed, resuspended in staining buffer consisting of 2% FBS in PBS with 2 mM EDTA, and blocked with anti-mouse CD16/32 antibodies for 15 minutes on ice. After blocking, cells were pelleted and resuspended with F4/80. Cells were incubated for 45 minutes on ice in the dark, then washed and resuspended in staining buffer for analysis. Cells were analyzed using an Attune NxT cytometer (Thermo Fisher) and data were analyzed using FlowJo software to quantify the proportion of F4/80^+ macrophages that co-stained for apoptotic cells (% efferocytosis).

T1 sequence (Q6IQ20 whole entry): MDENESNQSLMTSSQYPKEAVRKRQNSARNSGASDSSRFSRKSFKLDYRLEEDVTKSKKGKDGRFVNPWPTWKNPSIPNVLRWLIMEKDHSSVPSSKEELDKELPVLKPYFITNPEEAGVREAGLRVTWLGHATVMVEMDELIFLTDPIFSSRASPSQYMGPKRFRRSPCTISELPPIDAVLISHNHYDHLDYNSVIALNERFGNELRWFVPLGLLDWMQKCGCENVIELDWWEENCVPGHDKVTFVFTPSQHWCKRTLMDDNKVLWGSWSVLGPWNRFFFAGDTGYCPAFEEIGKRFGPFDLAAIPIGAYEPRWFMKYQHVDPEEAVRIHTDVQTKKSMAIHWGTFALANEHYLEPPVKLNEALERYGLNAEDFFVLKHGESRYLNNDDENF

As for `O=C(Nc1nc2ccccc2s1)C1CCN(S(=O)(=O)c2ccc(F)c(Cl)c2)CC1` [VU233], the “EC50, recombinant human NAPE-PLD” value in assay [1] (FIG. 18A, PED-A1) was “not calculable”. Besides, the “effect on activity of recombinant human NAPE-PLD” value (“effect on activity” for short) in assay [1] is on record as “no significant effect”. Further, the “effect on efferocytosis by wild-type BMDM” value (shortened to “effect … by wild-type BMDM”) in assay [2] is given as “modestly reduced efferocytosis”.
On to `Cc1ccc(C)c2sc(NC(=O)C3CCN(S(=O)(=O)c4ccc(F)cc4)CC3)nc12` [VU533], for which, in assay [1] (FIG. 18A, PED-A1), the “Emax, recombinant human NAPE-PLD” value is reported as 1.9 fold. Further, in assay [1], the “effect on activity” value is “concentration-dependent increases”. Also, the “effect … by wild-type BMDM” value in assay [2] is “significantly enhanced efferocytosis”.
For `Cc1cc(C)c2sc(NC(=O)C3CCN(S(=O)(=O)c4ccc(F)cc4)CC3)nc2c1` [VU534, N-(5,7-Dimethylbenzo[d]thiazol-2-yl)-1-((4-fluorophenyl)sulfonyl)piperidine-4-carboxamide], the “Emax, recombinant human NAPE-PLD” value in assay [1] (FIG. 18A, PED-A1) came out at 1.8 fold. For the same compound, the “effect on activity” value in assay [1] was “concentration-dependent increases”. The “effect on efferocytosis by Napepld−/− (KO) BMDM” value in assay [2] (6 h, KO BMDM (FIG. 21C)) was “had no effect”. For the same compound, the “effect on efferocytosis by WT BMDM in WT versus KO experiment” value in assay [2] (6 h, WT BMDM (FIG. 21C)) is “significantly increased efferocytosis”. In addition, the “effect … by wild-type BMDM” value in assay [2] is “increases efferocytosis capacity; also recorded: significantly enhanced efferocytosis”.

The values are drawn from patent US20250250265A1, “BENZOTHIAZOLE-PHENYLSULFONYL-PIPERIDINE ANALOGS AS ACTIVATORS OF NACYLPHOSPHATIDYLETHANOLAMINE HYDROLYZING PHOSPHOLIPASE D” (priority 2022, published 2025).
